Test results from patent publication US10434100B2, “Protein phosphatase 2A inhibitors for treating myelodysplastic syndromes” (priority 2014, dated 2019).

How the values were obtained:
protein phosphatase 2A = protein phosphatase 2A (Homo sapiens, UniProt P67775); details: cited from earlier work
del(5q) MDS [1] = details: cited from earlier work
non-del (5q) MDS = details: cited from earlier work
Namalwa cells [2] = test: Cell cycle analysis of Namalwa cells treated with LB-100; type: cell-based
Procedure: FIG. 1 is a bar graph showing percent of Namalwa cells in G1 arrest 24 hours after treatment with 0.1 μM, 1.0 μM or 10 μM LB-100 dissolved in DMSO (grey) or MSG (black) compared to control and vehicle.
FIG. 2 is a bar graph showing percent of Namalwa cells in G1 arrest 24 hours after treatment with 0.1 μM, 1.0 μM or 10 μM LB-100 compared to control.
Namalwa cells were treated with LB-100 dissolved in DMSO or MSG.

Namalwa cells [3] = test: Apoptosis in cell lines (Namalwa), flow cytometry; type: cell-based; details: 10 μM, dissolved in MSG
Procedure: FIG. 3 is a bar graph showing percentage of Namalwa cells undergoing apoptosis after treatment with 0.1 μM, 1.0 μM or 10 μM LB-100 dissolved in DMSO (grey) or MSG (black) compared to control and vehicle.
FIGS. 4A to 4D are a series of flow cytometry plots showing percentage of Namalwa cells undergoing apoptosis after treatment with control (FIG. 4A), 0.1 μM (FIG. 4B), 1.0 μM (FIG. 4C), or 10 μM (FIG. 4D) LB-100.

del(5q) patient BM MNCs = test: Apoptosis in patient cells, del(5q); type: cell-based
Procedure: FIG. 6 is a bar graph showing percentage of primary BM MNCs from a Del(5q) patient undergoing apoptosis after treatment with 0.1 μM, 1.0 μM, or 10 μM lenalidomide (grey) or 0.1 μM, 1.0 μM, or 10 μM LB-100 (black), compared to a control.

[4] = tested on: Non-del(5q) patient BM MNCs; test: Apoptosis in patient cells, non-del(5q); type: cell-based; details: FIG. 5
HL60 cells = test: MTT assay, proliferation of HL60 cells; type: cell-based; details: 72 hours, versus lenalidomide, significant difference at 1 μM (FIG. 7A)
Procedure: (§1) FIG. 7A is a graph showing proliferation of HL60 cells 72 hours after treatment with 0.001 μM, 0.01 μM, 0.1 μM, 1.0 μM, 10 μM, or 100 μM LB-100 (grey) or 0.001 μM, 0.01 μM, 0.1 μM, 1.0 μM, 10 μM, or 100 μM lenalidomide (black), compared to control or vehicle. FIGS. 7B to 7C are graphs showing proliferation of Namalwa cells 72 hours after treatment with 0.001 μM, 0.01 μM, 0.1 μM, 1.0 μM, 10 μM, or 100 μM LB-100 (♦), 0.001 μM, 0.01 μM, 0.1 μM, 1.0 μM, 10 μM, or 100 μM lenalidomide (▪), or 0.001 μM, 0.01 μM, 0.1 μM, 1.0 μM, 10 μM, or 100 μM, cantharidin (▴), compared to control or vehicle.
(§2) HL60 cells and U937 cells were compared (FIGS. 8A and 8B).

Namalwa cells [5] = test: MTT assay, proliferation of Namalwa cells; type: cell-based; details: 72 hours, versus control (FIGS. 7B and 7C)
Procedure: as §1, §2

del(5q) MDS [6] = test: Additional studies of LB-100 efficacy in del(5q) MDS; type: in vivo
Procedure: (§3) Additional studies, similar to the aforementioned Phase I design, are conducted to evaluate the efficacy of LB-100, alone or in combination with lenalidomide, in patients with del(5q) MDS or non-del(5q) MDS.
An amount of LB-100 is administered to a subject afflicted with del(5q) MDS. […] An amount of LB-100 in combination with lenalidomide is administered to a subject afflicted with del(5q) MDS.

non-del(5q) MDS = test: Additional studies of LB-100 efficacy in non-del(5q) MDS; type: in vivo
Procedure: as §3
An amount of LB-100 is administered to a subject afflicted with non-del(5q) MDS. […] An amount of LB-100 in combination with lenalidomide is administered to a subject afflicted with non-del(5q) MDS.

[7] = tested on: MDS that is resistant to lenalidomide; test: Additional studies of LB-100 efficacy in lenalidomide-resistant MDS; type: in vivo; details: LB-100 or LB-100 in combination with lenalidomide
Procedure: as §3

[8] = LB-100 in combination with lenalidomide

Sequence of protein phosphatase 2A (P67775 whole entry): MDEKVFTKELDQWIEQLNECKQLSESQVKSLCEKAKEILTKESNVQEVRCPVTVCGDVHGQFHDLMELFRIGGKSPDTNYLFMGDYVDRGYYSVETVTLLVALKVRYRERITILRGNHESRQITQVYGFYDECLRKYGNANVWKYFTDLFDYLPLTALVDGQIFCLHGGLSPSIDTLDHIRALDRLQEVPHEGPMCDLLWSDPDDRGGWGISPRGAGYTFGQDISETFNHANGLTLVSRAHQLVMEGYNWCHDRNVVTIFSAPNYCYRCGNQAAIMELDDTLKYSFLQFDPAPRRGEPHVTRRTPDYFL

Structure (SMILES): C=C1[C@@H](O)[C@@H]2O[C@]3(CC[C@H](/C=C/[C@@H](C)[C@@H]4CC(C)=C[C@@]5(O[C@H](C[C@@](C)(O)C(=O)O)CC[C@H]5O)O4)O3)CC[C@H]2O[C@@H]1[C@@H](O)C[C@H](C)[C@H]1O[C@@]2(CCCCO2)CC[C@H]1C [Okadaic acid, 9,10-Deepithio-9,10-didehydroacanthifolicin]
- Selectivity over PP2B, PP2C and other phosphatases (in words) (protein phosphatase 2A): highly selective over PP2B, PP2C and a range of other phosphatases

Structure (SMILES): Nc1cccc2c1CN(C1CCC(=O)NC1=O)C2=O (stereo not drawn) [Lenalidomide, lenalidomide]
- transfusion independence (TI), share of patients (del(5q) MDS [1]; lower risk MDS patients with del(5q)): 67%
- median duration of response (del(5q) MDS [1]; patients with del5q MDS): 2.5 years
- transfusion independence (TI), share of patients (non-del (5q) MDS): 26%

Structure (SMILES): CN1CCN(C(=O)C2C(C(=O)O)[C@H]3CC[C@@H]2O3)CC1 (stereo partly drawn) [LB100]
- G1 arrest, dose dependence (in words) (Namalwa cells [2]; Table 2, FIG. 2): led to G1 arrest in a dose-dependent fashion
- G1 arrest (in words) (Namalwa cells [2]; dissolved in DMSO or MSG (Table 1, FIG. 1)): led to G1 arrest at 1 and 10 μM in MSG and at 10 μM in DMSO
- Apoptosis (in words) (Namalwa cells [3]): led to apoptosis at 10 μM
- Apoptosis (in words) (del(5q) patient BM MNCs; 1 μM): mild increase in apoptosis
- Cytotoxicity compared with lenalidomide (in words) (del(5q) patient BM MNCs; 10 μM): more cytotoxic than lenalidomide
- Apoptosis (in words) (del(5q) patient BM MNCs; 0.1, 1.0, 10 μM (FIG. 6)): induced apoptosis in a dose dependent fashion
- Apoptosis (in words) [4]: did not lead to apoptosis
- Proliferation (in words) (HL60 cells): significant decreased proliferation in comparison to treatment with lenalidomide
- Proliferation (in words) (Namalwa cells [5]): significant decrease in proliferation in comparison to control
- Efficacy (in words) (del(5q) MDS [6]; LB-100 alone): effective to treat the del(5q) MDS
- Efficacy (in words) (del(5q) MDS [6]; [8]): effective to treat the del(5q) MDS
- Efficacy (in words) (non-del(5q) MDS; LB-100 alone): effective to treat the non-del(5q) MDS
- Efficacy (in words) (non-del(5q) MDS; [8]): effective to treat the non-del(5q) MDS
- Efficacy (in words) [7]: effective to treat the MDS
